Results taken from patent US20250092064A1, “BENZOTRIAZOLE COMPOUND” (DAIICHI SANKYO COMPANY, LIMITED, priority 2022, published 2025).

Assays:
[1] = biological target: binding between Nrf2 and Keap1 (Homo sapiens (Human), UniProt Q14145); assay: FP assay (in vitro): inhibition of Nrf2-Keap1 binding by fluorescence polarization; details: GST-fused human Keap1 (325-642) 20 nM, FITC-labeled Nrf2 peptide 10 nM, 2 hr at room temperature
[2] = test system: NQO1 activity in Hepa1c1c7 cells; assay: NAD(P)H: quinone oxidoreductase-1 (NQO1) enzyme induction assay (in vitro); assay type: cell-based, mouse; details: Mus musculus, Hepa-1c1c7, NQO1 activity with 400 nM test compound as a ratio from the base without compound, about 48 hr
In short: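 Mouse Hepa1c1c7 hepatoma cells treated 48 hr with 400 nM compound (final). NQO1 activity in lysates read by absorbance at 610 nm; value is background-subtracted activity ratio versus untreated cells.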

Chain of binding between Nrf2 and Keap1 (Q14145 325-624 limits assumed): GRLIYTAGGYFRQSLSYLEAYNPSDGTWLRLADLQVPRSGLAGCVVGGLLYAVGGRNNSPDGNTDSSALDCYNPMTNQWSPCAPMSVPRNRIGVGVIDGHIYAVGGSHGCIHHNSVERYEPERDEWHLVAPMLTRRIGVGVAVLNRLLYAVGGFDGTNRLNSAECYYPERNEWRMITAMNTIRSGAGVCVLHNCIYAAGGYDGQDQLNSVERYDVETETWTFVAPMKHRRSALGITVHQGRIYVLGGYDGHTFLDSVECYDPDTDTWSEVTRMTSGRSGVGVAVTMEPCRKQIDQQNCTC

Row | Compound | IC50 [1] [nM] | fold induction at 0.4 µM [2]
1 | CC[C@@H]1CN(Cc2cc([C@H](CC(=O)O)c3cc(C)c4c(nnn4C)c3C)cc3ccsc23)[C@@H](C)c2ncccc2O1 [Example 68, (3S)-3-(7-{[(2R,5S)-2-Ethyl-5-methyl-2,3-dihydropyrido[2,3-f][1,4]oxazepin-4(5H)-yl]methyl}-1-benzothiophen-5-yl)-3-(1,4,7-trimethyl-1H-benzotriazol-5-yl)propanoic acid] | ≤ 10 | > 5
2 | CC[C@@H]1CN(Cc2cc([C@H](CC(=O)O)c3cc(C)c4c(nnn4C)c3C)cc3c2CCC3)[C@@H](C)c2ncccc2O1 [Example 69, (3S)-3-(7-{[(2R,5S)-2-Ethyl-5-methyl-2,3-dihydropyrido[2,3-f][1,4]oxazepin-4(5H)-yl]methyl}-2,3-dihydro-1H-inden-5-yl)-3-(1,4,7-trimethyl-1H-benzotriazol-5-yl)propanoic acid] | ≤ 10 | 3 to 5
3 | CC[C@@H]1CN(Cc2cc([C@@H](CC(=O)O)c3cc(Cl)c4c(nnn4C)c3C)cc3ccsc23)[C@@H](C)c2ncccc2O1 [Example 70, (3R)-3-(7-Chloro-1,4-dimethyl-1H-benzotriazol-5-yl)-3-(7-{[(2R,5S)-2-ethyl-5-methyl-2,3-dihydropyrido[2,3-f][1,4]oxazepin-4(5H)-yl]methyl}-1-benzothiophen-5-yl)propanoic acid] | 30 to 100 | 3 to 5
4 | CC[C@@H]1CN(Cc2cc(C(CC(=O)O)c3ccc4c(nnn4C)c3C)cc3ccsc23)[C@H](C)c2ncccc2O1 (stereo partly drawn) [Example 73, 3-(1,4-Dimethyl-1H-benzotriazol-5-yl)-3-(7-{[(2R,5R)-2-ethyl-5-methyl-2,3-dihydropyrido[2,3-f][1,4]oxazepin-4(5H)-yl]methyl}-1-benzothiophen-5-yl)propanoic acid] | 30 to 100 | > 5
5 | CC[C@@H]1CN(Cc2cc([C@H](CC(=O)O)c3ccc4c(nnn4C)c3Cl)cc3ccsc23)[C@@H](C)c2ncccc2O1 [Example 74, (3S)-3-(4-Chloro-1-methyl-1H-benzotriazol-5-yl)-3-(7-{[(2R,5S)-2-ethyl-5-methyl-2,3-dihydropyrido[2,3-f][1,4]oxazepin-4(5H)-yl]methyl}-1-benzothiophen-5-yl)propanoic acid] | ≤ 10 | > 5
6 | CC[C@@H]1CN(Cc2cc([C@@H](CC(=O)O)c3ccc4c(nnn4C)c3Cl)cc3ccsc23)[C@@H](C)c2ncccc2O1 [Example 75, (3R)-3-(4-Chloro-1-methyl-1H-benzotriazol-5-yl)-3-(7-{[(2R,5S)-2-ethyl-5-methyl-2,3-dihydropyrido[2,3-f][1,4]oxazepin-4(5H)-yl]methyl}-1-benzothiophen-5-yl)propanoic acid] | ≤ 10 | > 5
7 | Cc1c([C@@H](CC(=O)O)c2cc(CN3C[C@@H](C)Oc4ccc(O)nc4[C@@H]3C)c3sccc3c2)ccc2c1nnn2C [Example 80, (3S)-3-(1,4-Dimethyl-1H-benzotriazol-5-yl)-3-(7-{[(2R,5S)-7-hydroxy-2,5-dimethyl-2,3-dihydropyrido[2,3-f][1,4]oxazepin-4(5H)-yl]methyl}-1-benzothiophen-5-yl)propanoic acid] | 10 to 30 | > 5
8 | Cc1c([C@H](CC(=O)O)c2cc(CN3C[C@@H](C)Oc4ccc(O)nc4[C@@H]3C)c3sccc3c2)ccc2c1nnn2C [Example 82, (3R)-3-(1,4-Dimethyl-1H-benzotriazol-5-yl)-3-(7-{[(2R,5S)-7-hydroxy-2,5-dimethyl-2,3-dihydropyrido[2,3-f][1,4]oxazepin-4(5H)-yl]methyl}-1-benzothiophen-5-yl)propanoic acid] | 10 to 30 | > 5
9 | CC[C@@H]1CN(Cc2cc([C@@H](c3ccc4c(nnn4C)c3C)C(C)(C)C(=O)O)cc3c2CCC3)[C@@H](C)c2ncccc2O1 [Example 89, (3S)-3-(1,4-Dimethyl-1H-benzotriazol-5-yl)-3-(7-{[(2R,5S)-2-ethyl-5-methyl-2,3-dihydropyrido[2,3-f][1,4]oxazepin-4(5H)-yl]methyl}-2,3-dihydro-1H-inden-5-yl)-2,2-dimethylpropanoic acid] | ≤ 10 | > 5
10 | Cc1c(C(CC(=O)O)c2cc(CN3C[C@@H](C)Oc4ccccc4S3(=O)=O)c3cc[nH]c3c2)ccc2c1nnn2C (stereo partly drawn) [Example 90, 3-(1,4-Dimethyl-1H-benzotriazol-5-yl)-3-(4-{[(4R)-4-methyl-1,1-dioxido-3,4-dihydro-2H-5,1,2-benzoxathiazepin-2-yl]methyl}-1H-indol-6-yl)propanoic acid] | 10 to 30 | > 5
11 | CC[C@@H]1CN(Cc2cc(C(CC(=O)O)c3ccc4c(nnn4C)c3C)cc3c2OCC3)S(=O)(=O)c2cc(Cl)cnc2O1 (stereo partly drawn) [Example 91, 3-(7-{[(4R)-8-Chloro-4-ethyl-1,1-dioxido-3,4-dihydro-2H-pyrido[2,3-b][1,4,5]oxathiazepin-2-yl]methyl}-2,3-dihydro-1-benzofuran-5-yl)-3-(1,4-dimethyl-1H-benzotriazol-5-yl)propanoic acid] | 10 to 30 | > 5
12 | CC[C@@H]1CN(Cc2cc(C(CC(=O)O)c3ccc4c(nnn4C)c3Cl)cc3ccoc23)S(=O)(=O)c2cc(Cl)cnc2O1 (stereo partly drawn) [Example 92, 3-(7-{[(4R)-8-Chloro-4-ethyl-1,1-dioxido-3,4-dihydro-2H-pyrido[2,3-b][1,4,5]oxathiazepin-2-yl]methyl}-1-benzofuran-5-yl)-3-(4-chloro-1-methyl-1H-benzotriazol-5-yl)propanoic acid] | 10 to 30 | > 5
13 | C[C@@H]1CN(Cc2cc(C(CC(=O)O)c3ccc4c(nnn4C)c3Cl)cc3c2CCC3)S(=O)(=O)c2ccccc2O1 (stereo partly drawn) [Example 95, 3-(4-Chloro-1-methyl-1H-benzotriazol-5-yl)-3-(7-{[(4R)-4-methyl-1,1-dioxido-3,4-dihydro-2H-5,1,2-benzoxathiazepin-2-yl]methyl}-2,3-dihydro-1H-inden-5-yl)propanoic acid] | ≤ 10 | > 5
14 | CC[C@@H]1CN(Cc2cc([C@H](CC(=O)O)c3cc(Cl)c4c(nnn4C)c3C)cc3c2CCC3)S(=O)(=O)c2cc(Cl)cnc2O1 [Example 96, (3S)-3-(7-Chloro-1,4-dimethyl-1H-benzotriazol-5-yl)-3-(7-{[(4R)-8-chloro-4-ethyl-1,1-dioxido-3,4-dihydro-2H-pyrido[2,3-b][1,4,5]oxathiazepin-2-yl]methyl}-2,3-dihydro-1H-inden-5-yl)propanoic acid] | ≤ 10 | > 5
15 | CC[C@@H]1CN(Cc2cc([C@@H](CC(=O)O)c3cc(Cl)c4c(nnn4C)c3C)cc3c2CCC3)S(=O)(=O)c2cc(Cl)cnc2O1 [Example 97, (3R)-3-(7-Chloro-1,4-dimethyl-1H-benzotriazol-5-yl)-3-(7-{[(4R)-8-chloro-4-ethyl-1,1-dioxido-3,4-dihydro-2H-pyrido[2,3-b][1,4,5]oxathiazepin-2-yl]methyl}-2,3-dihydro-1H-inden-5-yl)propanoic acid] | ≤ 10 | > 5
16 | CC[C@@H]1CN(Cc2cc([C@@H](CC(=O)O)c3cc(OC(F)F)c4c(nnn4C)c3C)cc3c2CCC3)S(=O)(=O)c2cc(Cl)cnc2O1 [Example 98, (3R)-3-(7-{[(4R)-8-Chloro-4-ethyl-1,1-dioxido-3,4-dihydro-2H-pyrido[2,3-b][1,4,5]oxathiazepin-2-yl]methyl}-2,3-dihydro-1H-inden-5-yl)-3-[7-(difluoromethoxy)-1,4-dimethyl-1H-benzotriazol-5-yl]propanoic acid] | ≤ 10 | > 5
17 | CC[C@@H]1CN(Cc2cc([C@H](CC(=O)O)c3cc(OC(F)F)c4c(nnn4C)c3C)cc3c2CCC3)S(=O)(=O)c2cc(Cl)cnc2O1 [Example 99, (3S)-3-(7-{[(4R)-8-Chloro-4-ethyl-1,1-dioxido-3,4-dihydro-2H-pyrido[2,3-b][1,4,5]oxathiazepin-2-yl]methyl}-2,3-dihydro-1H-inden-5-yl)-3-[7-(difluoromethoxy)-1,4-dimethyl-1H-benzotriazol-5-yl]propanoic acid] | ≤ 10 | > 5
18 | CC[C@@H]1CN(Cc2cc([C@H](CC(=O)O)c3cc(OC(F)(F)F)c4c(nnn4C)c3C)cc3c2CCC3)S(=O)(=O)c2cc(Cl)cnc2O1 [Example 100, (3S)-3-(7-{[(4R)-8-Chloro-4-ethyl-1,1-dioxido-3,4-dihydro-2H-pyrido[2,3-b][1,4,5]oxathiazepin-2-yl]methyl}-2,3-dihydro-1H-inden-5-yl)-3-[1,4-dimethyl-7-(trifluoromethoxy)-1H-benzotriazol-5-yl]propanoic acid] | ≤ 10 | > 5
19 | CC[C@@H]1CN(Cc2cc([C@@H](CC(=O)O)c3cc(OC(F)(F)F)c4c(nnn4C)c3C)cc3c2CCC3)S(=O)(=O)c2cc(Cl)cnc2O1 [Example 101, (3R)-3-(7-{[(4R)-8-Chloro-4-ethyl-1,1-dioxido-3,4-dihydro-2H-pyrido[2,3-b][1,4,5]oxathiazepin-2-yl]methyl}-2,3-dihydro-1H-inden-5-yl)-3-[1,4-dimethyl-7-(trifluoromethoxy)-1H-benzotriazol-5-yl]propanoic acid] | ≤ 10 | > 5
20 | CC[C@@H]1CN(Cc2cc(C(CC(=O)O)c3cc(C4CC4)c4c(nnn4C)c3C)cc3c2OCC3)S(=O)(=O)c2cc(Cl)cnc2O1 (stereo partly drawn) [Example 102, 3-(7-{[(4R)-8-Chloro-4-ethyl-1,1-dioxido-3,4-dihydro-2H-pyrido[2,3-b][1,4,5]oxathiazepin-2-yl]methyl}-2,3-dihydro-1-benzofuran-5-yl)-3-(7-cyclopropyl-1,4-dimethyl-1H-benzotriazol-5-yl)propanoic acid] | ≤ 10 | > 5
